Laboratory results published in patent US20120252765A1, “USE OF […] THE PREPARATION OF A MEDICAMENT FOR THE PREVENTION OF HOSPI[…] HEART FAILURE” (SANOFI, priority 2009, published 2012).

Test system: patients with atrial fibrillation
Experiment: partial factorial, double-blind, randomized, multi-center, placebo-controlled trial of irbesartan for prevention of vascular events
Type: in vivo, human
Source text: Efficacy of irbesartan and its pharmaceutically acceptable salts versus placebo in patients with atrial fibrillation for the prevention of vascular events was provided via irbesartan during a partial factorial, double-blind, randomized, multi-center, placebo-controlled group trial.
To be eligible for the trial, patients had to have all of the following: an evidence of atrial fibrillation, an evidence of high risk of vascular events, and a systolic blood pressure of at least 110 mm Hg.
The evidence of atrial fibrillation is defined as follows: patient must have either permanent, paroxysmal or persistent atrial fibrillation. Patients in atrial fibrillation at baseline (unless cardiovascular surgery was performed in the previous month) had ECG documented atrial fibrillation at the time of enrollment. Patients not in atrial fibrillation at baseline (i.e. during screening period, between the screening visit and the day of randomization) had ECG documented atrial fibrillation on two separate occasions, at least 2 weeks apart in the six months prior to randomization (and not within one month of cardiovascular surgery).
The evidence of high risk of vascular events is defined as follows: at least one of the following risk criteria must be present:
Patients have been enrolled for over 4 years. Study drug treatment units (placebo or irbesartan) were such that each patient took two tablets of either placebo or 150 mg irbesartan form A, once daily, at night. After an up-titration period of 2 weeks, all patients were up-titrated to 300 mg. They took two tablets of either placebo or 150 mg irbesartan form A, once daily, at night.
Results were calculated using non-parametric Kaplan-Meier estimate.
Cox's proportional hazard model was used to estimate the hazard ratio also called relative risk.
Relative risk (RR) is the ratio between the risk of having a hospitalization for heart failure for patients treated with irbesartan and the risk of having a hospitalization for heart failure for patients treated with placebo.
The percentage of decrease of an event is calculated as follow: […]

CCCCC1=NC2(CCCC2)C(=O)N1Cc1ccc(-c2ccccc2-c2nnn[nH]2)cc1 [irbesartan, 2-n-butyl-4-spirocyclopentane-1-[(2′-(tetrazol-5-yl)biphenyl-4-yl)methyl]-2-imidazolin-5-one]
risk of heart failure hospitalization (4518 patients on irbesartan form A up-titrated to 300 mg once daily, Kaplan-Meier estimate, placebo 3.2% per year): 2.7 % per year | number of stays in hospital (irbesartan group, placebo 4059, p=0.004): 3817 | days hospitalized for cardiovascular reasons (irbesartan group, placebo 39941, p=0.0001): 36480 days | decrease of days hospitalized for cardiovascular reasons (irbesartan versus placebo): 8.7% | relative risk (hazard ratio) of hospitalization for heart failure (irbesartan versus placebo, Cox's proportional hazard model, confidence interval 0.76-0.98, p=0.018): 0.86 | reduction in the risk of heart failure hospitalization (1-RR) (irbesartan versus placebo, p=0.018): 14% | hospitalization for heart failure events (number of events in the irbesartan group (4518 patients), placebo 551): 482 | reduction in the risk of the composite of stroke, non-CVS embolism and transient ischemic attacks (post hoc analysis, irbesartan versus placebo, p=0.02): 13% | risk of the composite of stroke, non-CVS embolism and transient ischemic attacks (post hoc analysis, placebo 3.4% per year): 2.9 % per year
